Entries after “also recorded” stand apart in the source; their conditions may differ.
Assays:
[1] = tested on: chick embryo chorioallantoic membrane; assay: Chick embryo chorioallantoic membrane (CAM) assay; type: in vivo; conditions: 100 mg disk, after 48 hours
Method: Anti-angiogenic activity is evaluated in vivo by testing the ability of a compound to inhibit the proliferation of new blood vessel cells (angiogenesis). A suitable assay is the chick embryo chorioallantoic membrane (CAM) assay described by Crum et al., Science 230:1375 (1985). See also, U.S. Pat. No. 5,001,116, which is hereby incorporated by reference in its entirety. Briefly, fertilized chick embryos are removed from their shell on day 3 or 4, and a methylcellulose disc containing the drug is implanted on the chorioallantoic membrane. The embryos are examined 48 hours later and, if a clear avascular zone appears around the disc, the diameter of that zone is measured.

tubulin [2] = tested on: T1, tubulin; assay: Tubulin polymerization inhibition in vitro (turbidity at 350 nm); type: biochemical; conditions: for IC50: 1.0 M glutamate, 10 μM tubulin
T1 construct: other: 1.0 M glutamate, 10 μM tubulin; Effect on tubulin polymerization / microtubule assembly
Method: Microtubule assembly is followed in a temperature controlled recording spectrophotometer. For details and a discussion, see R. D'Amato et al., Proc Natl Acad Sci USA, 91:3964-3968 (1994).
A typical reaction mixture, which will have a final reaction volume of […], contains 1.0 M monosodium glutamate (pH 6.6), 1.0 mg/ml (10 μM) tubulin, 1.0 MM MgCl2, 4% (v/v) dimethylsulfoxide, and a compound to be tested at the desired concentration (typically 0.1 to 100 μM). The reaction mixtures are incubated for 15 min. at 37° C. and then chilled on ice. After addition of 10 μl 12.5 mM GTP (and, optionally, 0.33 mg/ml microtubule-associated proteins, or MAPs) to initiate polymerization, each reaction mixture is transferred to a cuvette at 0° C., and a baseline established. At time zero, the temperature controller of the spectrophotometer is set to a target temperature, typically between 25 and 37° C. Microtubule assembly is monitored by observing an increase in turbidity at 350 nm as the temperature of the reaction mixture rises to the set target temperature.
The results are presented in Table 1 as IC50 values (μM) for inhibition of tubulin polymerization. Alternatively, inhibition of microtubule assembly can be detected by transmission electron microscopy, as described in U.S. Pat. No. 5,504,074 which is hereby incorporated by reference in its entirety.

tubulin [3] = tested on: T2, tubulin; assay: Enhancement of glutamate- or MAP-induced tubulin assembly, turbidimetric curves (FIGS. 4 and 5); type: biochemical; conditions: for Effect on MAP-induced tubulin assembly: 0.75 mg/ml MAPs, 1.0 mg/ml tubulin, 25° C.
T2 construct: Activity in room temperature assay; other: no polymerization in the absence of drug; other: GTP-only system, critical concentrations
Method: In those cases where acceleration of tubulin polymerization is observed, an IC50 value for inhibition of polymerization is of course not derivable. Results for such compounds may be presented in the form of turbidimetric curves, e.g. as presented in FIGS. 4 and 5 for representative compounds 13 and 18.
FIG. 4: Each reaction mixture contained 0.8 M glutamate (pH 6.6), 0.4 mM GTP, 12 μM (1.2 mg/ml) tubulin, 4% (v/v) dimethyl sulfoxide, and compound 13 or 18 as indicated. Baselines were established at 0°, and at time zero the temperature controller was set at 26°. At the time indicated by the dashed line, the temperature controller was set at 0°. A. Curve 1, no drug; curve 2, 2 μM compound 13; curve 3, 5 μM 7; curve 4, 10 μM 7; curve 5, 40 μM 7; curve 6, 40 μM 14. B. Curve 1, no drug; curve 2, 2 μM compound 18; curve 3, 5 μM 18; curve 4, 10 μM 18; curve 5, 40 μM 18.
FIG. 5: Each reaction mixture contained 0.1 M Mes (pH 6.9 with NaOH in 0.5 M stock solution), 0.1 mM GTP, 10 μM (1.0 mg/ml) tubulin, 0.75 mg/ml heat-treated MAPs, 4% dimethyl sulfoxide, and drug as indicated. […] There was no change in turbidity in any reaction mixture. At this point the temperature controller was set at 10°, and subsequent temperature changes, as indicated, were made at the times indicated by the vertical dashed lines. Curve 1, no drug; curve 2, 10 μM paclitaxel; curve 3, 10 μM compound 13; curve 4, 20 μM 7; curve 5, 40 μM 7; curve 6, 10 μM compound 18.

tubulin [4] = tested on: T2, tubulin; assay: Tubulin polymerization inhibition in vitro (turbidity at 350 nm); type: biochemical; parameters: key: *: Accelerates tubulin polymerization; conditions: no IC50 derivable
tubulin [5] = tested on: T2, tubulin; assay: Enhancement of glutamate- or MAP-induced tubulin assembly, turbidimetric curves (FIGS. 4 and 5); type: biochemical
tumor cells = assay: Inhibition of cell growth in the NCI Developmental Therapeutics Program tumor cell screen; type: cell-based; conditions: mean graph midpoint for all cell lines tested
Method: The compounds of the invention were tested for inhibition of cell growth in the established tumor cell screen of the National Cancer Institute Developmental Therapeutics Program. See Boyd et al., Drug Dev. Res., 34:91-109 (1995). Results are presented in Table 1 as the “MGM” values (mean graph midpoint, in μM, for all cell lines tested).

tubulin [6] = tested on: T2, tubulin; assay: Critical concentration of tubulin for assembly, turbidimetric (FIG. 6); type: biochemical
Method: FIG. 6 presents critical concentrations, obtained at 30° C., of tubulin with paclitaxel and compound 13. A: MAPs -and GTP-dependent assembly without drug and in the presence of 10 μM paclitaxel or 10 μM 13. B: GTP-dependent, MAP-independent assembly with 10 μM paclitaxel or 10 μM 13.
Measurement of the critical concentration with and without MAPs with paclitaxel, and again with 13, was therefore carried out to provide some idea of the comparative activity of these agents. The data are presented in FIG. 6, which yield critical concentrations, obtained at 30° C., of 1.4, 0.06, and 0.50 mg/ml for MAP-and GTP-dependent assembly without drug and in the presence of 10 μM paclitaxel or 10 μM 13, respectively, and 0.20 and 1.4 mg/ml for GTP-dependent, MAP-independent assembly with 10 μM paclitaxel or 10 μM 13. […] (A constant weight ratio of MAPs to tubulin of 1:3 was used, because the suboptimal concentration of MAPs caused greater differences in the critical concentrations obtained.) Reaction mixtures (0.25 ml) contained 0.1 M Mes (pH 6.9), 100 μM GTP, 4% dimethyl sulfoxide, the indicated tubulin concentration (with heat-treated MAPs in 1:3 weight ratio to the tubulin, panel A only), and either 10 μM paclitaxel (▴), 10 μM compound 13 (◯), or no drug (▾). Cuvette contents were equilibrated at 0°, drugs were added, temperature was jumped to 30° (about one min), and the turbidity changes after a 20 min incubation measured.

tubulin [7] = tested on: T2, tubulin; assay: Polymer morphology by electron microscopy; type: biochemical; conditions: 40 μM 13 or 10 μM paclitaxel
Source text: It was possible that compounds 13 and 18 were not actually acting like paclitaxel in enhancing microtubule assembly and in stabilizing the microtubules formed in the course of the turbidity studies shown in FIG. 4, but that these agents were causing formation of polymers of aberrant morphology and temperature stability different from microtubules, such as occurs with vinca alkaloids. Polymer morphology was examined by electron microscopy. […] Even more important, when the reaction mixtures were returned to 0° C. for 15 min, no microtubules were visualized on grids prepared from the reaction mixture without drug.

Compound	IC50 (tubulin [2])	melting point	Cytotoxicity (MGM μM) (tumor cells)	other results
COc1cc2c(cc1O)CC[C@@H]1[C@@H]2CC[C@]2(C)[C@@H](O)CC[C@@H]12 [2-methoxyestradiol]	–	–	–	Inhibition of cell mitosis and growth of new blood vessels [1]: inhibit cell mitosis and the growth of new blood vessels
CCOc1cc2c(cc1O)CC(=O)CC1C2CCC2(C)C(O)CCC12 (stereo not drawn) [Compound 9, B-Homo-3,170β-dihydroxy-2-ethoxyestra-1,3,5(10)-triene-7-one]	> 40 µM	210 to 212 °C	–	–
CCOc1cc2c(cc1O)CC(=NNS(=O)(=O)c1ccc(C)cc1)CC1C2CCC2(C)C(O)CCC12 (stereo not drawn) [Compound 10, B-Homo-2-ethoxy-3,17β-dihydroxyestra-1,3,5(10)-triene-7-one toluenesulfonyl-hydrazone]	> 40 µM	–	–	–
CCOc1cc2c(cc1O)CCCC1C2CCC2(C)C(O)CCC12 (stereo not drawn) [Compound 11, B-Homo-2-ethoxy-3.17β-estradiol]	1.3 µM	86 to 88 °C	–	Effect on tubulin polymerization / microtubule assembly (tubulin [2]): inhibit tubulin polymerization
CCOc1cc2c(cc1OC(C)=O)CCCC1C2CCC2(C)C(OC(C)=O)CCC12 (stereo not drawn) [Compound 12, B-Homo-3,17β-diacetoxy-2-ethoxyestra-1,3,5(10)-triene]	> 40 µM	98 to 100 °C	–	–
CCOc1cc2c(cc1O)C(=O)CCC1C2CCC2(C)C(O)CCC12 (stereo not drawn) [Compound 14, B-Homo-2-ethoxy-6-oxoestra-1,3,5(10)-trien-3,17β-diol]	> 40 µM	–	–	Effect on glutamate- and MAP-induced tubulin assembly (tubulin [3]): inactive
CCOc1cc2c(cc1O)C(=O)CC[C@@H]1[C@@H]2CC[C@]2(C)[C@@H](OC(C)=O)CC[C@@H]12 [Compound 18, B-Homo-17β-acetoxy-2-ethoxy-3-hydroxyestra-1,3,5(10)-trien-6-one]	–	–	–	Effect on tubulin polymerization / microtubule assembly (tubulin [2]): stimulate microtubule assembly; Effect on glutamate- and MAP-induced tubulin assembly (tubulin [3]): activity was largely retained; Effect on MAP-induced tubulin assembly (tubulin [3]): enhanced tubulin assembly; also recorded: less stimulatory than 13; also recorded: significantly less than that of paclitaxel; Tubulin polymerization inhibition, symbol instead of IC50 (tubulin [4]): *; Tubulin assembly in the absence of GTP (tubulin [5]): has not been observed
CCOc1cc2c(cc1OC(C)=O)C(=O)CCC1C2CCC2(C)C(O)CCC12 (stereo not drawn) [Compound 19, B-Homo-3-Acetoxy-2-ethoxy-17β-hydroxyestra-1,3,5(10)-trien-6-one]	> 40 µM	–	–	Effect on glutamate- and MAP-induced tubulin assembly (tubulin [3]): inactive
CCOc1cc2c(cc1O)C(=NO)C[C@@H]1[C@@H]2CC[C@]2(C)[C@@H](OC(C)=O)CC[C@@H]12 [Compound 27, 17β-Acetoxy-2-ethoxy-6-hydroximinoestra-1,3,5(10)-triene-3-ol]	> 40 µM	226 to 227 °C	0.567 µM	–
CCOc1cc2c(cc1O)NC(=O)CC1C2CCC2(C)C(O)CCC12 (stereo not drawn) [Compound 29, B-Homo-6-aza-2-ethoxy-3,17β-dihydroxyestra-1,3,5(10)-trien-7-one]	4 µM	222 to 223 °C	16.2 µM	Effect on tubulin polymerization / microtubule assembly (tubulin [2]): inhibit tubulin polymerization
CCOc1cc2c(cc1O)NCCC1C2CCC2(C)C(O)CCC12 (stereo not drawn) [Compound 30, B-Homo-6-aza-2-ethoxyestra-1,3,5(10)-triene-3,17β-diol]	> 40 µM	–	49.0 µM	–
CCOc1cc2c(cc1OC(C)=O)N(C(C)=O)CCC1C2CCC2(C)C(OC(C)=O)CCC12 (stereo not drawn) [Compound 31, B-Homo-6-acetyl-6-aza-3,17β-diacetoxy-2-ethoxyestra-1,3,5(10)-triene]	> 40 µM	–	38.0 µM	–
CCOc1cc2c(cc1O)N(C(C)=O)CCC1C2CCC2(C)C(O)CCC12 (stereo not drawn) [Compound 32, B-Homo-6-acetyl-6-aza-2-ethoxyestra-1,3,5(10)-triene-3,17β-diol]	25 µM	189 to 191 °C	35.5 µM	Effect on tubulin polymerization / microtubule assembly (tubulin [2]): inhibit tubulin polymerization
CCOc1cc2c(cc1O)N(CC)CCC1C2CCC2(C)C(O)CCC12 (stereo not drawn) [Compound 33, B-Homo-6-aza-2-ethoxy-6-ethylestra-1,3,5(10)-triene-3,17β-diol]	> 40 µM	–	50.1 µM	–
CC(=O)O[C@H]1C(=O)[C@@]2(C)[C@H]([C@H](OC(=O)c3ccccc3)[C@]3(O)C[C@H](OC(=O)[C@H](O)[C@@H](NC(=O)c4ccccc4)c4ccccc4)C(C)=C1C3(C)C)[C@]1(OC(C)=O)CO[C@@H]1C[C@@H]2O [paclitaxel, Paclitaxel, reference compound]	–	–	–	Critical concentration of tubulin, MAP- and GTP-dependent assembly (tubulin [6]; 30° C., 10 μM drug, MAPs:tubulin 1:3 by weight): 0.06 mg/mL; Critical concentration of tubulin, GTP-dependent, MAP-independent assembly (tubulin [6]; 30° C., 10 μM drug, no MAPs): 0.20 mg/mL; Affinity for tubulin polymers relative to compound 13 (tubulin [6]; from critical concentrations): 7-8 fold; Effect on MAP-induced tubulin assembly (tubulin [3]): much more extensive than that with compound 13; Cold stable microtubules after return to 0° C. for 15 min (tubulin [7]): abundant cold stable microtubules were observed; Assembly reaction when either MAPs or GTP was omitted (tubulin [5]; 10 μM tubulin, 40 μM compound 13 or 10 μM paclitaxel): a reaction was observed in both cases

— patent US6696436B1, “B-homoestra-1,3,5(10)-trienes as modulators of tubulin polymerization” (The United States of America as represented by the …, priority 1999, dated 2004)
